# Measured values published in PubChem BioAssay AID1918938 (Molecular Pharmacology Branch, DTP, NCI, 2023).
# Test system: 556581-035-R-J1-PDC complex spheroid viability
# Assay: Anticancer human tumor 556581-035-R-J1-PDC patient-derived ovarian carcinoma cell line growth inhibition
# Settings: for IC50: curve of first compound; for viability, T/C: stronger effect = lower value
# Procedure, shortened: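 Multicellular complex spheroids of tumor cells with human endothelial cells (HUVEC) and mesenchymal stem cells; the LSD1 inhibitor iadademstat was combined with standard-of-care or investigational agents. Top concentration at or near clinical Cmax, half-log dilutions; final DMSO ≤0.25%.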
# [1] = second compound 0.1 µM, first compound 0.000316 µM
# [2] = second compound 0.1 µM, first compound 0.001 µM
# [3] = second compound 0.1 µM, first compound 0.00316 µM
# [4] = second compound 0.1 µM, first compound 0.01 µM
# [5] = second compound 0.1 µM, first compound 0.0316 µM
# [6] = second compound 0.1 µM, first compound 0.1 µM
# [7] = second compound 0.316 µM, first compound 0.000316 µM
# [8] = second compound 0.316 µM, first compound 0.001 µM
# [9] = second compound 0.316 µM, first compound 0.00316 µM
# [10] = second compound 0.316 µM, first compound 0.01 µM
# [11] = second compound 0.316 µM, first compound 0.0316 µM
# [12] = second compound 0.316 µM, first compound 0.1 µM
# [13] = second compound 1 µM, first compound 0.000316 µM
# [14] = second compound 1 µM, first compound 0.001 µM
# [15] = second compound 1 µM, first compound 0.00316 µM
# [16] = second compound 1 µM, first compound 0.01 µM
# [17] = second compound 1 µM, first compound 0.0316 µM
# [18] = second compound 1 µM, first compound 0.1 µM
# [19] = second compound 3.16 µM, first compound 0.000316 µM
# [20] = second compound 3.16 µM, first compound 0.001 µM
# [21] = second compound 3.16 µM, first compound 0.00316 µM
# [22] = second compound 3.16 µM, first compound 0.01 µM
# [23] = second compound 3.16 µM, first compound 0.0316 µM
# [24] = second compound 3.16 µM, first compound 0.1 µM
# [25] = second compound 10 µM, first compound 0.000316 µM
# [26] = second compound 10 µM, first compound 0.001 µM
# [27] = second compound 10 µM, first compound 0.00316 µM
# [28] = second compound 10 µM, first compound 0.01 µM
# [29] = second compound 10 µM, first compound 0.0316 µM
# [30] = second compound 10 µM, first compound 0.1 µM
# 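Note: spheroids exposed to agents for seven days.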
# 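Throughout, for viability, T/C: 100% = DMSO vehicle control wells.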
smiles,measurement,setting,value
CC(C)CC(NC(=O)C(Cc1ccccc1)NC(=O)c1cnccn1)B(O)O (stereo not given) + NC1CC1c1ccc(-c2cccc(O)c2)cc1,IC50,second compound 0.1 µM,< 0.316 nM
same,IC50,second compound 0.316 µM,< 0.316 nM
same,IC50,second compound 1 µM,< 0.316 nM
same,IC50,second compound 3.16 µM,< 0.316 nM
same,IC50,second compound 10 µM,< 0.316 nM
same,"viability, T/C",[1],1.61%
same,"viability, T/C",[2],0.66%
same,"viability, T/C",[3],0.12%
same,"viability, T/C",[4],0.19%
same,"viability, T/C",[5],0.14%
same,"viability, T/C",[6],0.26%
same,"viability, T/C",[7],3.63%
same,"viability, T/C",[8],0.1%
same,"viability, T/C",[9],0.35%
same,"viability, T/C",[10],0.1%
same,"viability, T/C",[11],0.09%
same,"viability, T/C",[12],0.17%
same,"viability, T/C",[13],1.67%
same,"viability, T/C",[14],0.11%
same,"viability, T/C",[15],0.08%
same,"viability, T/C",[16],0.1%
same,"viability, T/C",[17],0.1%
same,"viability, T/C",[18],0.2%
same,"viability, T/C",[19],1.12%
same,"viability, T/C",[20],0.11%
same,"viability, T/C",[21],0.11%
same,"viability, T/C",[22],0.08%
same,"viability, T/C",[23],0.09%
same,"viability, T/C",[24],0.31%
same,"viability, T/C",[25],1.94%
same,"viability, T/C",[26],0.27%
same,"viability, T/C",[27],0.22%
same,"viability, T/C",[28],5.89%
same,"viability, T/C",[29],0.35%
same,"viability, T/C",[30],0.86%
CC(C)CC(NC(=O)CNC(=O)c1cc(Cl)ccc1Cl)B1OC(=O)CC(CC(=O)O)(C(=O)O)O1 (stereo not given) + NC1CC1c1ccc(-c2cccc(O)c2)cc1,IC50,second compound 0.1 µM,2.44 nM
same,IC50,second compound 0.316 µM,2.84 nM
same,IC50,second compound 1 µM,2.78 nM
same,IC50,second compound 3.16 µM,2.67 nM
same,IC50,second compound 10 µM,2.73 nM
same,"viability, T/C",[1],85.1%
same,"viability, T/C",[2],95.6%
same,"viability, T/C",[3],38.2%
same,"viability, T/C",[4],2.07%
same,"viability, T/C",[5],0.71%
same,"viability, T/C",[6],0.3%
same,"viability, T/C",[7],85.4%
same,"viability, T/C",[8],96%
same,"viability, T/C",[9],45.8%
same,"viability, T/C",[10],1.79%
same,"viability, T/C",[11],1.03%
same,"viability, T/C",[12],0.98%
same,"viability, T/C",[13],91%
same,"viability, T/C",[14],95%
same,"viability, T/C",[15],44.5%
same,"viability, T/C",[16],0.78%
same,"viability, T/C",[17],0.36%
same,"viability, T/C",[18],0.22%
same,"viability, T/C",[19],82.8%
same,"viability, T/C",[20],85%
same,"viability, T/C",[21],44.1%
same,"viability, T/C",[22],0.89%
same,"viability, T/C",[23],0.65%
same,"viability, T/C",[24],0.31%
same,"viability, T/C",[25],85.4%
same,"viability, T/C",[26],74.8%
same,"viability, T/C",[27],47.1%
same,"viability, T/C",[28],3.21%
same,"viability, T/C",[29],0.15%
same,"viability, T/C",[30],1.14%
Nc1ccccc1NC(=O)c1ccc(CNC(=O)OCc2cccnc2)cc1 + NC1CC1c1ccc(-c2cccc(O)c2)cc1,IC50,second compound 0.1 µM,87.6 nM
same,IC50,second compound 0.316 µM,95.3 nM
same,IC50,second compound 1 µM,85.9 nM
same,IC50,second compound 3.16 µM,97.4 nM
same,IC50,second compound 10 µM,94 nM
same,"viability, T/C","second compound 0.1 µM, first compound 0.00949 µM",91.9%
same,"viability, T/C","second compound 0.1 µM, first compound 0.03 µM",77.1%
same,"viability, T/C","second compound 0.1 µM, first compound 0.0949 µM",47.3%
same,"viability, T/C","second compound 0.1 µM, first compound 0.3 µM",21.1%
same,"viability, T/C","second compound 0.1 µM, first compound 0.949 µM",6.12%
same,"viability, T/C","second compound 0.1 µM, first compound 3 µM",0.47%
same,"viability, T/C","second compound 0.316 µM, first compound 0.00949 µM",92.1%
same,"viability, T/C","second compound 0.316 µM, first compound 0.03 µM",70.1%
same,"viability, T/C","second compound 0.316 µM, first compound 0.0949 µM",54.5%
same,"viability, T/C","second compound 0.316 µM, first compound 0.3 µM",23.7%
same,"viability, T/C","second compound 0.316 µM, first compound 0.949 µM",8.22%
same,"viability, T/C","second compound 0.316 µM, first compound 3 µM",0.62%
same,"viability, T/C","second compound 1 µM, first compound 0.00949 µM",92.8%
same,"viability, T/C","second compound 1 µM, first compound 0.03 µM",64.3%
same,"viability, T/C","second compound 1 µM, first compound 0.0949 µM",55.9%
same,"viability, T/C","second compound 1 µM, first compound 0.3 µM",24.9%
same,"viability, T/C","second compound 1 µM, first compound 0.949 µM",9.16%
same,"viability, T/C","second compound 1 µM, first compound 3 µM",5.91%
same,"viability, T/C","second compound 3.16 µM, first compound 0.00949 µM",90.2%
same,"viability, T/C","second compound 3.16 µM, first compound 0.03 µM",72.7%
same,"viability, T/C","second compound 3.16 µM, first compound 0.0949 µM",51.5%
same,"viability, T/C","second compound 3.16 µM, first compound 0.3 µM",26.6%
same,"viability, T/C","second compound 3.16 µM, first compound 0.949 µM",10.4%
same,"viability, T/C","second compound 3.16 µM, first compound 3 µM",0.51%
same,"viability, T/C","second compound 10 µM, first compound 0.00949 µM",86.5%
same,"viability, T/C","second compound 10 µM, first compound 0.03 µM",69.1%
same,"viability, T/C","second compound 10 µM, first compound 0.0949 µM",46.5%
same,"viability, T/C","second compound 10 µM, first compound 0.3 µM",37.3%
same,"viability, T/C","second compound 10 µM, first compound 0.949 µM",10.1%
same,"viability, T/C","second compound 10 µM, first compound 3 µM",0.3%
